Earlier results in US6486182B1, “Mutual prodrugs of amlodipine and atorvastatin” (Pfizer Inc, priority 1999, dated 2002).

Key:
calcium channel = conditions: see PCT/EP94/02697
[1] = system: smooth muscle cell migration; conditions: see PCT/EP95/00847

For `CCOC(=O)C1=C(COCCN)NC(C)=C(C(=O)OC)C1c1ccccc1Cl` (single isomer, unassigned) [R(+) isomer, Amlodipine], the “calcium channel blocking activity” value (calcium channel) is given as “little or no calcium channel blocking activity” and the “inhibition of smooth muscle cell migration” value [1] is given as “potent inhibitor”.
